Data as given in patent publication US7265152B2 (ViroPharma Incorporated, priority 2002, dated 2007).
Where two headings read alike, the source gives them in different places.

Legend:
[1] = system: HCV replicon (BB7 sequence) in Huh-7-Clone A cells; assay: HCV replicon assay: ELISA of NS5A protein in replicon-containing cells (Inhibition of Viral RNA Replication); assay type: cell-based; conditions: Hepatitis C virus, HCV replicon assay, read-out: Replicon
In short: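 Huh-7-Clone A cells carrying subgenomic BB7 HCV replicon (G418-selectable) incubated 72 h with compound. NS5A protein quantified by cell ELISA: glutaraldehyde fixation, anti-NS5A monoclonal plus HRP secondary, TMB read at OD 650 nm. EC50 derived from 8-point serial dilution dose curve.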

[2] = target: T1, HCV NS5B (Hepatitis C virus genotype 1b, UniProt Q9WMX2); assay: Inhibition of viral RNA-dependent RNA polymerase (RdRp), in vitro biochemical assay; parameters: species or system HCV genotype 1b virus (BB7); conditions: read-out: HCV pol-BB7 IC50
T1 construct: fusion protein, of which the carboxyl terminal 21 amino acids were removed to enhance its solubility; His tag (GSHHHHHH); made in house; host or cells: E. coli
In short: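 Purified recombinant NS5B from a genotype 1b consensus (BB7), His-tagged, E. coli-expressed, with the C-terminal 21 residues deleted. Inhibition of RdRp activity in vitro was measured, and IC50 is the concentration giving 50% inhibition.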

[3] = HCV NS5B RdRp, BB7, activity class
[4] = ranges of 50% effective concentration (EC50)
[5] = HCV NS5B polymerase, BB7 (genotype 1b), values given as range classes A-D

Row | SMILES | EC50 ([1]; ranges of EC50) [nM] | IC50 [2, 3] [nM] | EC50 [1, 4] [nM] | IC50 [2, 5] [nM]
1 | CNC(=O)c1c(-c2ccc(F)cc2)oc2cc(N(C)S(C)(=O)=O)c(OCc3nsc(NCC4CC4)n3)cc12 [Example 374, 5-[5-(Cyclopropylmethyl-amino)-[1,2,4]thiadiazol-3-ylmethoxy]-2-(4-fluoro-phenyl)-6-(methanesulfonyl-methyl-amino)-benzofuran-3-carboxylic acid methylamide] | < 1000 | ≤ 500 | – | –
2 | CNC(=O)c1c(-c2ccc(F)cc2)oc2cc(C(C)(O)CN)c(OC(C)C)cc12 (stereo not drawn) [Example 375, 6-(2-Amino-1-hydroxy-1-methyl-ethyl)-2-(4-fluoro-phenyl)-5-isopropoxy-benzofuran-3-carboxylic acid methylamide] | < 30000 | 500 to 5000 | – | –
3 | CNC(=O)c1c(-c2ccc(F)cc2)oc2cc(C(C)(C)N)c(OC(C)C)cc12 [Example 376, 6-(1-Amino-1-methyl-ethyl)-2-(4-fluoro-phenyl)-5-isopropoxy-benzofuran-3-carboxylic acid methylamide] | < 1000 | ≤ 500 | – | –
4 | CNC(=O)c1c(-c2ccc(F)cc2)oc2cc(C3CCCN3C(=O)NC)c(OC)cc12 (stereo not drawn) [Example 377, 2-[2-(4-Fluoro-phenyl)-5-methoxy-3-methylcarbamoyl-benzofuran-6-yl]-pyrrolidine-1-carboxylic acid methylamide] | < 10000 | ≤ 500 | – | –
5 | CCNC(=O)c1c(-c2ccc(F)cc2)oc2cc(-c3c(C)noc3C)c(OC)cc12 [Example 378, 6-(3,5-Dimethyl-isoxazol-4-yl)-2-(4-fluoro-phenyl)-5-methoxy-benzofuran-3-carboxylic acid ethylamide] | < 1000 | ≤ 500 | – | –
6 | COc1cc2c(C(=O)NC(C)C)c(-c3ccc(F)cc3)oc2cc1-c1c(C)noc1C [Example 379, 6-(3,5-Dimethyl-isoxazol-4-yl)-2-(4-fluoro-phenyl)-5-methoxy-benzofuran-3-carboxylic acid isopropylamide] | > 30000 | 500 to 5000 | – | –
7 | COc1cc2c(C(=O)NC3CC3)c(-c3ccc(F)cc3)oc2cc1-c1c(C)noc1C [Example 380, 6-(3,5-Dimethyl-isoxazol-4-yl)-2-(4-fluoro-phenyl)-5-methoxy-benzofuran-3-carboxylic acid cyclopropylamide] | < 1000 | ≤ 500 | – | –
8 | CNC(=O)c1c(-c2ccc(F)cc2)oc2cc(C3(C)CNC(=O)O3)c(OC(C)C)cc12 (stereo not drawn) [Example 381, 2-(4-Fluoro-phenyl)-5-isopropoxy-6-(5-methyl-2-oxo-oxazolidin-5-yl)-benzofuran-3-carboxylic acid methylamide] | < 1000 | ≤ 500 | – | –
9 | CNC(=O)c1c(-c2ccc(F)cc2)oc2cc(N(C)S(C)(=O)=O)c(OCC(=O)OC(C)(C)C)cc12 [Example 382, [2-(4-Fluoro-phenyl)-6-(methanesulfonyl-methyl-amino)-3-methylcarbamoyl-benzofuran-5-yloxy]-acetic acid tert-butyl ester] | – | – | < 1000 | ≤ 500
10 | CNC(=O)c1c(-c2ccc(F)cc2)oc2cc(-c3nc(C)n[nH]3)c(OC)cc12 [Example 383, 2-(4-Fluoro-phenyl)-5-methoxy-6-(5-methyl-2H-[1,2,4]triazol-3-yl)-benzofuran-3-carboxylic acid methylamide] | – | – | < 10000 | 500 to 5000
11 | CNC(=O)c1c(-c2ccc(F)cc2)oc2cc(C(C)(C)N)c(OC)cc12 [Example 384, 6-(1-Amino-1-methyl-ethyl)-2-(4-fluoro-phenyl)-5-methoxy-benzofuran-3-carboxylic acid methylamide] | – | – | < 30000 | 500 to 5000
12 | CNC(=O)c1c(-c2ccc(F)cc2)oc2cc(C(C)(C)NC(C)=O)c(OC)cc12 [Example 385, 6-(1-Acetylamino-1-methyl-ethyl)-2-(4-fluoro-phenyl)-5-methoxy-benzofuran-3-carboxylic acid methylamide] | – | – | < 1000 | ≤ 500
13 | CNC(=O)c1c(-c2ccc(F)cc2)oc2cc(N(C)S(C)(=O)=O)c(OCC(=O)O)cc12 [Example 386, [2-(4-Fluoro-phenyl)-6-(methanesulfonyl-methyl-amino)-3-methylcarbamoyl-benzofuran-5-yloxy]-acetic acid] | – | – | < 30000 | ≤ 500
14 | CNC(=O)c1c(-c2ccc(F)cc2)oc2cc(-c3nc(C)nn3C)c(OC)cc12 [Example 387, 6-(2,5-Dimethyl-2H-[1,2,4]triazol-3-yl)-2-(4-fluoro-phenyl)-5-methoxy-benzofuran-3-carboxylic acid methylamide] | – | – | < 10000 | 500 to 5000
15 | CNC(=O)c1c(-c2ccc(F)cc2)oc2cc(N(C)S(C)(=O)=O)c(OCc3nccs3)cc12 [Example 388, 2-(4-Fluoro-phenyl)-6-(methanesulfonyl-methyl-amino)-5-(thiazol-2-ylmethoxy)-benzofuran-3-carboxylic acid methylamide] | – | – | < 1000 | ≤ 500
16 | CNC(=O)c1c(-c2ccc(F)cc2)oc2cc(C3(C)NC(=O)NC3=O)c(OC)cc12 (stereo not drawn) [Example 389, 2-(4-Fluoro-phenyl)-5-methoxy-6-(4-methyl-2,5-dioxo-imidazolidin-4-yl)-benzofuran-3-carboxylic acid methylamide] | – | – | < 10000 | ≤ 500
17 | CNC(=O)c1c(-c2ccc(F)cc2)oc2cc(C(C)(C)NS(C)(=O)=O)c(OC)cc12 [Example 390, 2-(4-Fluoro-phenyl)-6-(1-methanesulfonylamino-1-methyl-ethyl)-5-methoxy-benzofuran-3-carboxylic acid methylamide] | – | – | < 10000 | ≤ 500
18 | CNC(=O)c1c(-c2ccc(F)cc2)oc2cc(N(Cc3cccc(CBr)n3)S(C)(=O)=O)c(OCc3cccc(CBr)n3)cc12 [Example 391, 5-(6-Bromomethyl-pyridin-2-ylmethoxy)-6-[(6-bromomethyl-pyridin-2-ylmethyl)-methanesulfonyl-amino] 2-(4-fluoro-phenyl)-benzofuran-3-carboxylic acid methylamide] | – | – | < 10000 | ≤ 500
19 | CCOC(=O)c1csc(COc2cc3c(C(=O)NC)c(-c4ccc(F)cc4)oc3cc2N(C)S(C)(=O)=O)n1 [Example 392, 2-[2-(4-Fluoro-phenyl)-6-(methanesulfonyl-methyl-amino)-3-methylcarbamoyl-benzofuran-5-yloxymethyl]-thiazole-4-carboxylic acid ethyl ester] | – | – | < 1000 | ≤ 500
20 | CNC(=O)c1c(-c2ccc(F)cc2)oc2cc(N(C)S(C)(=O)=O)c(OCc3nc(C(=O)O)cs3)cc12 [Example 393, 2-[2-(4-Fluoro-phenyl)-6-(methanesulfonyl-methyl-amino)-3-methylcarbamoyl-benzofuran-5-yloxymethyl]-thiazole-4-carboxylic acid] | – | – | > 30000 | ≤ 500
21 | CNC(=O)c1c(-c2ccc(F)cc2)oc2cc(N(C)C)c(OC)cc12 [Example 394, 6-Dimethylamino-2-(4-fluoro-phenyl)-5-methoxy-benzofuran-3-carboxylic acid methylamide] | – | – | < 1000 | ≤ 500
22 | CNC(=O)c1c(-c2ccc(F)cc2)oc2cc(N(C)S(C)(=O)=O)c(OCC#N)cc12 [Example 395, 5-Cyanomethoxy-2-(4-fluoro-phenyl)-6-(methanesulfonyl-methyl-amino)-benzofuran-3-carboxylic acid methylamide] | – | – | < 1000 | ≤ 500
23 | CNC(=O)c1c(-c2ccc(F)cc2)oc2cc(N(C)S(C)(=O)=O)c(OCc3cc(C)on3)cc12 [Example 396, 2-(4-Fluoro-phenyl)-6-(methanesulfonyl-methyl-amino)-5-(5-methyl-isoxazol-3-ylmethoxy)-benzofuran-3-carboxylic acid methylamide] | – | – | < 1000 | ≤ 500
24 | CNC(=O)c1c(-c2ccc(F)cc2)oc2cc(N(C)S(C)(=O)=O)c(OCc3nnsc3Cl)cc12 [Example 397, 5-(5-Chloro-[1,2,3]thiadiazol-4-ylmethoxy)-2-(4-fluoro-phenyl)-6-(methanesulfonyl-methyl-amino)-benzofuran-3-carboxylic acid methylamide] | – | – | < 1000 | ≤ 500
25 | CNC(=O)c1c(-c2ccc(F)cc2)oc2cc(N(C)S(C)(=O)=O)c(OCc3nccn3C)cc12 [Example 398, 2-(4-Fluoro-phenyl)-6-(methanesulfonyl-methyl-amino)-5-(1-methyl-1H-imidazol-2-ylmethoxy)-benzofuran-3-carboxylic acid methylamide] | – | – | < 1000 | ≤ 500
26 | CNC(=O)c1c(-c2ccc(F)cc2)oc2cc(-c3c(C)noc3C)c(OCc3cscn3)cc12 [Example 401, 6-(3,5-Dimethyl-isoxazol-4-yl)-2-(4-fluoro-phenyl)-5-(thiazol-4-ylmethoxy)-benzofuran-3-carboxylic acid methylamide] | – | – | < 1000 | ≤ 500
27 | CNC(=O)c1c(-c2ccc(F)cc2)oc2cc(N(C)S(C)(=O)=O)c(OCc3nnc(N)[nH]3)cc12 [Example 402, 5-(5-Amino-4H-[1,2,4]triazol-3-ylmethoxy)-2-(4-fluoro-phenyl)-6-(methanesulfonyl-methyl-amino)-benzofuran-3-carboxylic acid methylamide] | – | – | < 1000 | ≤ 500
